Data from US20260201008A1, “SECRETIN-DERIVED GLP1R SELECTIVE AGONISTS” (GUBRA A/S, priority 2023, published 2026).
Numbered stars: 1 amine (or outer) side, 2 acyl side, 3 side chain; on linkers, the order of the positions; unused ones are H or OH. Square brackets hold non-standard residues; d marks the D form. Side chains are listed from the residue outwards. Peptide text beside a SMILES is read from it. * marks the point of attachment. C20 diacid = O=C(O)CCCCCCCCCCCCCCCCCCC(=O)*; γGlu = O=C(O)[C@H](CCC(=O)[*:2])N[*:1]; AEEA = NCCOCCOCC(=O)O; Aib = CC(C)(N)C(=O)O

Key:
[1] = Turbidity of crude library peptides (absorbance at 600 nm); format: physicochemical; conditions: Physical stability of peptides
Outline: (§1)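 Turbidity is the absorbance at 600 nm, taken before heating. Fibril signal is the mean ThT emission at 480 nm (450 nm excitation), read every 10 min over 72 h at 40° C with 700 rpm shaking between reads. Peptides at 267 μM, pH 4.0 acetate or pH 7.0 phosphate buffer (50 mM), 4 μM ThT final.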

[2] = Fibril formation of crude library peptides (Thioflavin T); format: physicochemical; set-up: key: average ThT fluorescence emission at 480 nm (ex 450 nm), raw units; conditions: Physical stability of peptides
Outline: as §1

GLP1R = GLP1R (Homo sapiens, UniProt P43220); assay: hGLP1R potency, cAMP accumulation in CHO-K1 cells stably overexpressing hGLP1R; format: cell-based; set-up: host or cells: CHO-K1; conditions: for EC50: cAMP accumulation, CHO-K1 cells overexpressing hGLP1R, read-out: hGLP1R pEC50 (converted); for SCTR EC50/GLP1R EC50 ratio: selectivity for hGLP1R over hSCTR, cAMP accumulation in CHO-K1 cells
Outline: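 2000 cells/well, DPBS + 0.05% casein + 0.5 mM IBMX; 30 min RT stimulation; HTRF cAMP detection after 1 h. Purified: 3-fold ×11, n=2; crude: 10-fold ×5, n=1. EC50 by variable-slope fit.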

SCTR = SCTR (Homo sapiens, UniProt P47872); assay: hSCTR potency, cAMP accumulation in CHO-K1 cells stably overexpressing hSCTR; format: cell-based; set-up: alternatively Euroscreen ES-712-AF; FAST-0161L; host or cells: CHO-K1; conditions: cAMP accumulation, CHO-K1 cells overexpressing hSCTR; read-out: hSCTR pEC50 (converted)
Outline: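 Thawed CHO-K1 cells carrying stable hSCTR are plated into casein/IBMX buffer (0.05%, 0.5 mM), dosed immediately for 30 min at room temperature, then cAMP is detected by TR-FRET. Purified peptides run as 11 three-fold dilutions in duplicate, and curves are fitted with variable slope.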

Chain of SCTR (P47872 23-440): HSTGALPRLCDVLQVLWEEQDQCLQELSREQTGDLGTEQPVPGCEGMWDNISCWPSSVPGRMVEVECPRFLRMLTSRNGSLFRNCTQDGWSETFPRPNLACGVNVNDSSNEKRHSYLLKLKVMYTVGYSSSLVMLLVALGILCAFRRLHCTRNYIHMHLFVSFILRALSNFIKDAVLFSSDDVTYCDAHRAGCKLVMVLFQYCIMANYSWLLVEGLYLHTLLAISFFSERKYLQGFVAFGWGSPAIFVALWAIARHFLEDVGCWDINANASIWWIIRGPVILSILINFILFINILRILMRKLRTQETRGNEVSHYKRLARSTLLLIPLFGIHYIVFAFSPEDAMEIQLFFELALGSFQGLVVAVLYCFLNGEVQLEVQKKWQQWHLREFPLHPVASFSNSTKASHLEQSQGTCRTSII
Chain of GLP1R (P43220 24-463): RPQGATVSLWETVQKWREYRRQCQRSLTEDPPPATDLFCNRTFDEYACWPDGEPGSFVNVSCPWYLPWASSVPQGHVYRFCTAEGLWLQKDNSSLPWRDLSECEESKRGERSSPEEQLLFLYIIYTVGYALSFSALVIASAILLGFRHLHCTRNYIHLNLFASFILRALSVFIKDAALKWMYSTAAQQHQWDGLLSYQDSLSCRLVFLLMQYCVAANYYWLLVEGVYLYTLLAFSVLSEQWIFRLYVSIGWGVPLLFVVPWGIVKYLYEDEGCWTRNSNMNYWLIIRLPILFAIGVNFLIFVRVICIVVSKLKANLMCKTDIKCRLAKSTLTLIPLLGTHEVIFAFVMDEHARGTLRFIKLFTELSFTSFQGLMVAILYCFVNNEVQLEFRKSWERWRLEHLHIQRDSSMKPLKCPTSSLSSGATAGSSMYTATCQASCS

With CC(C)C[C@H](NC(=O)[C@H](Cc1ccccc1)NC(=O)[C@H](CCCNC(=N)N)NC(=O)[C@H](CCC(N)=O)NC(=O)[C@H](CC(C)C)NC(=O)C(C)(C)NC(=O)[C@H](C)NC(=O)[C@H](CCC(=O)O)NC(=O)[C@H](CCC(=O)O)NC(=O)[C@H](CCCCNC(=O)COCCOCCNC(=O)COCCOCCNC(=O)CC[C@H](NC(=O)CCCCCCCCCCCCCCCCCCC(=O)O)C(=O)O)NC(=O)[C@H](CC(C)C)NC(=O)[C@H](Cc1ccc(O)cc1)NC(=O)[C@H](CO)NC(=O)[C@@H](NC(=O)[C@H](CC(=O)O)NC(=O)[C@H](CO)NC(=O)[C@@H](NC(=O)[C@H](Cc1ccccc1)NC(=O)[C@@H](NC(=O)CNC(=O)[C@H](Cc1ccc(O)cc1)NC(=O)C(C)(C)NC(=O)[C@@H](N)Cc1c[nH]cn1)[C@@H](C)O)[C@@H](C)O)C(C)C)C(=O)N[C@@H](CCC(=O)O)C(=O)N[C@@H](Cc1c[nH]cn1)C(=O)N[C@@H](CC(C)C)C(=O)N[C@H](C(N)=O)C(C)C [compound 159] (H-H[Aib]YGTFTSDVSYLK([AEEA-AEEA-γGlu-C20 diacid])EEA[Aib]LQRFLEHLV-NH2) as the molecule, how does the “Turbidity (pH 7)” value [1] read?
Its value is 0.08.

What about the Fibril formation [2] of the same molecule?
Its Fibril formation is 5426.

And the EC50 (GLP1R)?
The EC50 was 0.794 nM.

What about the “SCTR EC50/GLP1R EC50 ratio” value (GLP1R) of the same molecule?
Its value is 34730.

And the EC50 (SCTR)?
The EC50 was 25100 nM.

Which results are given for CC(C)C[C@H](NC(=O)[C@H](Cc1ccccc1)NC(=O)[C@H](CCCNC(=N)N)NC(=O)[C@H](CCC(N)=O)NC(=O)[C@H](CC(C)C)NC(=O)C(C)(C)NC(=O)[C@H](C)NC(=O)[C@H](CCC(=O)O)NC(=O)[C@H](CCC(=O)O)NC(=O)C(C)(C)NC(=O)[C@H](CC(C)C)NC(=O)[C@H](Cc1ccc(O)cc1)NC(=O)[C@H](CO)NC(=O)[C@@H](NC(=O)[C@H](CC(=O)O)NC(=O)[C@H](CO)NC(=O)[C@@H](NC(=O)[C@H](Cc1ccccc1)NC(=O)[C@@H](NC(=O)CNC(=O)[C@H](CCC(=O)O)NC(=O)C(C)(C)NC(=O)[C@@H](N)Cc1c[nH]cn1)[C@@H](C)O)[C@@H](C)O)C(C)C)C(=O)N[C@@H](CCC(=O)O)C(=O)N[C@@H](CCCCNC(=O)COCCOCCNC(=O)COCCOCCNC(=O)CC[C@H](NC(=O)CCCCCCCCCCCCCCCCCCC(=O)O)C(=O)O)C(=O)N[C@@H](CC(C)C)C(=O)N[C@H](C(N)=O)C(C)C [compound 158] (H-H[Aib]EGTFTSDVSYL[Aib]EEA[Aib]LQRFLEK([AEEA-AEEA-γGlu-C20 diacid])LV-NH2)?
Turbidity (pH 7) [1]: 0.08; Fibril formation [2]: 4465; EC50 (GLP1R): 0.0398 nM; SCTR EC50/GLP1R EC50 ratio (GLP1R): 41049; EC50 (SCTR): 1580 nM

For CC(C)C[C@H](NC(=O)[C@H](Cc1ccccc1)NC(=O)[C@H](CCCNC(=N)N)NC(=O)[C@H](CCC(N)=O)NC(=O)[C@H](CC(C)C)NC(=O)C(C)(C)NC(=O)[C@H](C)NC(=O)[C@H](CCC(=O)O)NC(=O)[C@H](CCC(=O)O)NC(=O)[C@H](CCCCNC(=O)COCCOCCNC(=O)COCCOCCNC(=O)CC[C@H](NC(=O)CCCCCCCCCCCCCCCCCCC(=O)O)C(=O)O)NC(=O)[C@H](CC(C)C)NC(=O)[C@H](Cc1ccc(O)cc1)NC(=O)[C@H](CO)NC(=O)[C@@H](NC(=O)[C@H](CC(=O)O)NC(=O)[C@H](CO)NC(=O)[C@@H](NC(=O)[C@H](Cc1ccccc1)NC(=O)[C@@H](NC(=O)CNC(=O)[C@H](Cc1c[nH]cn1)NC(=O)C(C)(C)NC(=O)[C@@H](N)Cc1c[nH]cn1)[C@@H](C)O)[C@@H](C)O)C(C)C)C(=O)N[C@@H](CCC(=O)O)C(=O)N[C@@H](Cc1c[nH]cn1)C(=O)N[C@@H](CC(C)C)C(=O)N[C@H](C(N)=O)C(C)C [compound 171] (H-H[Aib]HGTFTSDVSYLK([AEEA-AEEA-γGlu-C20 diacid])EEA[Aib]LQRFLEHLV-NH2), which “Turbidity (pH 7)” value [1] is on record?
The value was 0.08.

And the Fibril formation [2]?
Its Fibril formation is 3473.

And the EC50 (GLP1R)?
Its EC50 is 0.158 nM.

And the “SCTR EC50/GLP1R EC50 ratio” value (GLP1R)?
The value was 209459.

And the EC50 (SCTR)?
Its EC50 is 31600 nM.
